Consider 23 molecules from patent US9216991B2 (Ares Trading S.A., priority 2012, dated 2015).

Structures can show the parent of a compound that is named as a salt.

The assay addresses T1, IRAK4 (Homo sapiens, UniProt Q9NWZ3).
T1 construct: His (N); TEV cleavage site (N)
T1 sequence (Q9NWZ3 1-460): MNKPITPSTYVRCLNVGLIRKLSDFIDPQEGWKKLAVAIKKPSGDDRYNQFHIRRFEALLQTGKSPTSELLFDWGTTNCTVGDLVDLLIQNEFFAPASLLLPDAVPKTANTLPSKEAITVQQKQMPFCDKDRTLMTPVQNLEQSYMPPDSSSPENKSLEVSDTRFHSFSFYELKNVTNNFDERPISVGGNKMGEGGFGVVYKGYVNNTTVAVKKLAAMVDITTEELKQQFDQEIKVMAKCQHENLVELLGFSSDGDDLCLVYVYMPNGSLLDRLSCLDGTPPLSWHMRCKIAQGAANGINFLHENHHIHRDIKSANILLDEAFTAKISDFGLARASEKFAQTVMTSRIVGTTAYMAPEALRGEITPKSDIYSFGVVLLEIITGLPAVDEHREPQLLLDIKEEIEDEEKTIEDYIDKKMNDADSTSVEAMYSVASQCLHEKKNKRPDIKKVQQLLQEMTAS
Put plainly: IRAK4 Enzymatic Assay. The format is biochemical. The note with it: His-TEV-IRAK4 20 ng/well, ATP 2 μM, STK1-biotin peptide 300 nM, 3 hours at 30° C., FlashPlate radioactivity. On the procedure: IRAK4 is a human purified recombinant enzyme (His-TEV-IRAK1 (194-712)
IRAK4 hydrolyses ATP, autophosphorylates and phosphorylates a Serine/Threonine generic peptidic substrate (STK: 61ST1BLC from CisBio International based in Bagnols/Cèze FR).
Measurement of IRAK-4 inhibition is performed in streptavidin coated 384 well FlashPlate (PerkinElmer #SMP410A). His-TEV-IRAK4 (20 ng/well), ATP (2 μM, [^33P]ATP 0.25 μCi/well), STK1-biotin peptide (300 nM) and compounds in DMSO (range of concentrations from 20 μM to 1nM) or controls (2% DMSO) are incubated for 3 hours at 30° C. in assay buffer: Hepes pH7.0 50 mM, Fatty acid-free BSA 0.1%, Dithiothreitol DTT 2 mM, MgCl2 10 mM, EGTA 0.5 mM, Tween-20 0.01%, MnCl2 5 mM.
Kinase reaction is stopped by addition of EDTA. Supernatant is discarded, plates are washed three times with 150 mM NaCl and radioactivity is then measured in a Microbeta Trilux reader.
Turning to `Cn1cc(-c2cccc(-c3ncc(-c4cnn(C5CCN(C6CCOCC6)CC5)c4)cn3)c2)cn1` [Example 39, 2-[3-(1-Methyl-1H-pyrazol-4-yl)-phenyl]-5-{1-[1-(tetrahydro-pyran-4-yl)-piperidin-4-yl]-1H-pyrazol-4-yl}-pyrimidine], the IC50 was less than 100 nM.

Turning to `Cn1cc(-c2cccc(-c3ncc(-c4cnn(CC(=O)N5CCOC(CCO)C5)c4)cn3)c2)cn1` (centres unmarked) [Example 75, 1-[2-(2-Hydroxy-ethyl)-morpholin-4-yl]-2-(4-{2-[3-(1-methyl-1H-pyrazol-4-yl)-phenyl]-pyrimidin-5-yl}-pyrazol-1-yl)-ethanone], the IC50 fell in the range of 100 to 1000 nM.

`CCN(C)C(=O)[C@H]1CC[C@H](n2cc(-c3cnc(-c4cccc(-c5cnn(C)c5)c4)nc3)cn2)CC1` [Example 204, 4-(4-{2-[3-(1-Methyl-1H-pyrazol-4-yl)-phenyl]-pyrimidin-5-yl}-pyrazol-1-yl)-cyclohexanecarboxylic acid ethyl-methyl-amide]: the 50% inhibitory concentration (IC50) is less than 100 nM.

As to `Cn1cc(-c2cccc(-c3ncc(-c4cnn(CC(=O)N5CCC[C@H]5CO)c4)cn3)c2)cn1` [Example 81, 1-((S)-2-Hydroxymethyl-pyrrolidin-1-yl)-2-(4-{2-[3-(1-methyl-1H-pyrazol-4-yl)-phenyl]-pyrimidin-5-yl}-pyrazol-1-yl)-ethanone], the IC50 lay within 100 to 1000 nM.

As to `Cc1cc(-c2cccc(-c3ncc(-c4cnn([C@H]5CC[C@H](CO)CC5)c4)cn3)c2)cnn1` [Example 256, Trans-[4-(4-{2-[3-(6-Methyl-pyridazin-4-yl)-phenyl]-pyrimidin-5-yl}-pyrazol-1-yl)-cyclohexyl]-methanol], the IC50 is less than 100 nM.

Consider `Cn1cc(-c2cccc(-c3ncc(-c4cnn([C@H]5CC[C@@H](N)CC5)c4)cn3)c2)cn1` [Example 156, 4-(4-{2-[3-(1-Methyl-1H-pyrazol-4-yl)-phenyl]-pyrimidin-5-yl}-pyrazol-1-yl)-cyclohexylamine], for which the IC50 is 100 to 1000 nM.

`Cn1cc(-c2cccc(-c3ncc(-c4cnn([C@H]5CC[C@H](C(=O)NC6CC6)CC5)c4)cn3)c2)cn1` [Example 170, Trans-4-(4-{2-[3-(1-Methyl-1H-pyrazol-4-yl)-phenyl]-pyrimidin-5-yl}-pyrazol-1-yl)-cyclohexanecarboxylic acid cyclopropylamide]: the half-maximal inhibitory concentration (IC50) was less than 100 nM.

For `CN(C)CCn1cc(-c2cnc(-c3cccc(-c4cnn(C)c4)c3)nc2)cn1` [Example 11, Dimethyl-[2-(4-{2-[3-(1-methyl-1H-pyrazol-4-yl)-phenyl]-pyrimidin-5-yl}-pyrazol-1-yl)-ethyl]-amine], the IC50 was 1000 to 5000 nM.

Turning to `Cn1cc(-c2cccc(-c3ncc(-c4cnn(CC5CCNC5)c4)cn3)c2)cn1` (centres unmarked) [Example 65, 2-[3-(1-Methyl-1H-pyrazol-4-yl)-phenyl]-5-(1-pyrrolidin-3-ylmethyl-1H-pyrazol-4-yl)-pyrimidine hydrochloride], the half-maximal inhibitory concentration (IC50) fell in the range of 100 to 1000 nM.

Turning to `Cn1cc(-c2cccc(-c3ncc(-c4cnn(C5CCNCC5)c4)cn3)c2)cn1` [Example 1, 2-[3-(1-Methyl-1H-pyrazol-4-yl)-phenyl]-5-(1-piperidin-4-yl-1H-pyrazol-4-yl)-pyrimidine hydrochloride], the half-inhibitory concentration (IC50) was 100 to 1000 nM.

As for `CN1CCN(C(=O)[C@H]2CC[C@H](n3cc(-c4cnc(-c5cccc(-c6cnn(C)c6)c5)nc4)cn3)CC2)CC1` [Example 160, Trans-(4-Methyl-piperazin-1-yl)-[4-(4-{2-[3-(1-methyl-1H-pyrazol-4-yl)-phenyl]-pyrimidin-5-yl}-pyrazol-1-yl)-cyclohexyl]-methanone], the concentration for half-maximal inhibition (IC50) was less than 100 nM.

As for `Cn1cc(-c2cccc(-c3ncc(-c4cnn(C5CCN(C(=O)C(O)C(F)(F)F)CC5)c4)cn3)c2)cn1` (centres unmarked) [Example 115, 3,3,3-Trifluoro-2-hydroxy-1-[4-(4-{2-[3-(1-methyl-1H-pyrazol-4-yl)-phenyl]-pyrimidin-5-yl}-pyrazol-1-yl)-piperidin-1-yl]-propan-1-one], the IC50 lay within 100 to 1000 nM.

As for `Cn1cc(-c2cccc(-c3ncc(-c4cnn(C5CCC(=O)CC5)c4)cn3)c2)cn1` [Example 189, 4-(4-{2-[3-(1-Methyl-1H-pyrazol-4-yl)-phenyl]-pyrimidin-5-yl}-pyrazol-1-yl)-cyclohexanone], the half-inhibitory concentration (IC50) is 100 to 1000 nM.

In the case of `Cn1cc(-c2cccc(-c3ncc(-c4cnn(C5CCN(C(=O)CO)CC5)c4)cn3)c2)cn1` [Example 106, 2-Hydroxy-1-[4-(4-{2-[3-(1-methyl-1H-pyrazol-4-yl)-phenyl]-pyrimidin-5-yl}-pyrazol-1-yl)-piperidin-1-yl]-ethanone], the half-inhibitory concentration (IC50) lay within 100 to 1000 nM.

As to `CN(C)C[C@H]1CC[C@H](n2cc(-c3cnc(-c4cccc(-c5cnn(C)c5)c4)nc3)cn2)CC1` [Example 232, Trans-dimethyl-[4-(4-{2-[3-(1-methyl-1H-pyrazol-4-yl)-phenyl]-pyrimidin-5-yl}-pyrazol-1-yl)-cyclohexylmethyl]-amine], the IC50 is less than 100 nM.

With `Cn1cc(-c2cccc(-c3ncc(-c4cnn(C5CCN(C(=O)C6CCOCC6)CC5)c4)cn3)c2)cn1` [Example 107, [4-(4-{2-[3-(1-Methyl-1H-pyrazol-4-yl)-phenyl]-pyrimidin-5-yl}-pyrazol-1-yl)-piperidin-1-yl]-(tetrahydro-pyran-4-yl)-methanone], the concentration for half-maximal inhibition (IC50) was 100 to 1000 nM.

For `CC1COCCN1C(=O)Cn1cc(-c2cnc(-c3cccc(-c4cnn(C)c4)c3)nc2)cn1` (centres unmarked) [Example 147, 1-(3-Methyl-morpholin-4-yl)-2-(4-{2-[3-(1-methyl-1H-pyrazol-4-yl)-phenyl]-pyrimidin-5-yl}-pyrazol-1-yl)-ethanone], the IC50 fell in the range of 100 to 1000 nM.

As to `Cn1cc(-c2cccc(-c3ncc(-c4cnn(CC(=O)N5CCC6(CC5)COC6)c4)cn3)c2)cn1` [Example 86, 2-(4-{2-[3-(1-Methyl-1H-pyrazol-4-yl)-phenyl]-pyrimidin-5-yl}-pyrazol-1-yl)-1-(2-oxa-7-aza-spiro[3.5]non-7-yl)-ethanone], the IC50 lay in the range of 100 to 1000 nM.

In the case of `CN(C(=O)Cn1cc(-c2cnc(-c3cccc(-c4cnn(C)c4)c3)nc2)cn1)C1CCOCC1` [Example 91, N-Methyl-2-(4-{2-[3-(1-methyl-1H-pyrazol-4-yl)-phenyl]-pyrimidin-5-yl}-pyrazol-1-yl)-N-(tetrahydro-pyran-4-yl)-acetamide], the concentration for half-maximal inhibition (IC50) lay within 100 to 1000 nM.

In the case of `Cn1cc(-c2cccc(-c3ncc(-c4cnn(C5CCOCC5)c4)cn3)c2)cn1` [Example 97, 2-[3-(1-Methyl-1H-pyrazol-4-yl)-phenyl]-5-[1-(tetrahydro-pyran-4-yl)-1H-pyrazol-4-yl]-pyrimidine], the half-maximal inhibitory concentration (IC50) is 100 to 1000 nM.

As to `Cn1cc(-c2cccc(-c3ncc(-c4cn(C5CCOCC5)nc4C(N)=O)cn3)c2)cn1` [Example 137, 4-{2-[3-(1-Methyl-1H-pyrazol-4-yl)-phenyl]-pyrimidin-5-yl}-1-(tetrahydro-pyran-4-yl)-1H-pyrazole-3-carboxylic acid amide], the half-maximal inhibitory concentration (IC50) was 1000 to 5000 nM.

For `CN(C)C(=O)Cn1cc(-c2cnc(-c3cccc(-c4cnn(C)c4)c3)nc2)cn1` [Example 38, N,N-Dimethyl-2-(4-{2-[3-(1-methyl-1H-pyrazol-4-yl)-phenyl]-pyrimidin-5-yl}-pyrazol-1-yl)-acetamide], the half-inhibitory concentration (IC50) was 100 to 1000 nM.

Turning to `CC(C)[C@H](N)C(=O)N1CCC(n2cc(-c3cnc(-c4cccc(-c5cnn(C)c5)c4)nc3)cn2)CC1` [Example 124, (S)-2-Amino-3-methyl-1-[4-(4-{2-[3-(1-methyl-1H-pyrazol-4-yl)-phenyl]-pyrimidin-5-yl}-pyrazol-1-yl)-piperidin-1-yl]-butan-1-one], the 50% inhibitory concentration (IC50) lay in the range of 100 to 1000 nM.
